Test results: US4916145A, “Substituted n-[(pyridyl)alkyl]aryl-carboxamide” (Hoffmann-La Roche Inc., priority 1987, dated 1990)

Assays:
[1] = target: T1, PAF binding, dog platelets (Canis lupus familiaris, UniProt A0A8I3NSH0); assay: PAF Binding Assay (3H-PAF binding to washed dog platelets); conditions: 10 minutes at room temperature
T1 sequence (A0A8I3NSH0 1-343): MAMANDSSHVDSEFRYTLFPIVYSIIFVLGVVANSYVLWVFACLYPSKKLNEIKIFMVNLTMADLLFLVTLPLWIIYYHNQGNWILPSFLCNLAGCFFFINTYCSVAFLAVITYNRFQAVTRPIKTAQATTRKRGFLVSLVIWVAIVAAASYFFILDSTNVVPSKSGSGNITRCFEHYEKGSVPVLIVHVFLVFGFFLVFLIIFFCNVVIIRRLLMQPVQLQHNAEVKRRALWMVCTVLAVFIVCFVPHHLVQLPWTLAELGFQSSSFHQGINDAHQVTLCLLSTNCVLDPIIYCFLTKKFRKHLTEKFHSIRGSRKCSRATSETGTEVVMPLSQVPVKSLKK
Method: The binding assay was performed in 400 μl polyethylene microcentrifuge tubes (Beckman) containing 50 μl of an oil mixture of 2 parts Siliconol AR200 (Serva): 1 part Silicone Fluid (Arthur H. Thomas). Buffer, standards, or analogs 150 μl total volume) were added to the tubes. Radiolabelled ^3 H-PAF (50 μl) was then added to the tubes. The reaction was started by the addition of 50 μl of dog platelets (2×10^7 platelets). The tubes were capped, inverted several times to mix, and incubated for 10 minutes at room temperature. The platelets were separated from the incubation mixture by centrifuging 1 minute in a Beckman Microfuge B centrifuge. The tip of the microfuge tube was cut off, and the platelets were washed out of the tip with 200 μl of 50% methanol (Burdick and Jackson). Aquasol (NEN, 10 ml) was added and the radioactivity in the samples was determined using an LS 8100 Beckman liquid scintillation counter linked to a Techtran tape recorder. Data was processed through an in-house computer system. Alternatively, radioactivity was determined using a Searle Mark III liquid scintillation counter linked to a Iso-Data microprocessor.
Blood was collected from anesthesized or unanesthesized dogs into 5ml plastic centrifuge tubes containing 3.8% sodium citrate as the anticoagulant (1 volume of citrate/9 volumes of blood). The red cells were removed by centrifugation for 15 minutes at 600 rpm (100-125 g) at room temperature. An aliquot of the supernatant platelet rich Plasma (PRP) was saved for cell counting and the remainder was acidified to pH 6.5 with 0.15M citric acid. The platelet pellet was obtained after a 10 minute centrifugation at 2000 rpm (1000 g) at room temperature. Washed platelets were prepared by resuspending the platelet pellet once with PBS containing 1 mM EDTA, centrifuging as noted, and then resuspending the platelets in 0.1% BSA-PBS. An aliquot of the washed platelets was counted, platelets used for binding assays were diluted to 2×10^7 platelets/assay tube (4×10^8 platelets/ml).

[2] = tested on: PAF-Induced Platelet Count Decrease; assay: PAF-Induced Platelet Count Decrease; format: in vivo, guinea pig; conditions: for inhibition in vivo at 3 mg/kg: Cavia porcellus, Platelet, 0.25 h, iv, 15 minutes pretreatment time, read-out: PAF-Induced Platelet Count Decrease % Inhibition, i.v.
Method: Male Hartley guinea pigs weighing between 500 and 900 grams were fed standard guinea pig chow and tap water ad libitum. PAF was solubilized in ethanol and stored as a 2 mM stock solution at -70° C. The stock solution of PAF was diluted to […] in Tris buffer pH 7.4 and 0.1% BSA for all experiments.
Guinea pigs were anesthetized with urethane (1.6 g/kg, i.p.). A catheter (PE50) was introduced into the right carotid artery for withdrawing blood. A second catheter PE10) was introduced into the jugular vein for injecting drugs and for administering the PAF challenge (75 ng/kg, i.v.). A control blood sample was obtained and platelets were counted in a whole blood platelet analyzer. PAF was then given and blood samples were taken 15, 30, and 60 seconds after the challenge for platelet counts. Fifteen minutes later, selected concentrations of the test compound were solubilized in DMSO and injected intravenously into a group of 4-6 animals. Only one concentration of the test drug was used in each animal group. Fifteen minutes after drug injection, blood samples were taken before and 15, 30, and 60 sec after the PAF challenge, and analyzed for platelet number.
Animals were anesthetized with sodium pentobarbital (35 mg/kg. i.p.) and the carotid artery and jugular vein were cannulated as described above. The cannulae were exteriorized at the base of the neck and the animals were allowed to recover. Conscious, unrestrained guinea pigs which were allowed to recover from surgery for at least 18 hours were used in the experiments. The animals were challenged two times with PAF (120 ng/kg, i.v.); the first to establish a consistent response to PAF and the second to serve as a control from the PAF challenge. Blood samples were taken before and 15, 30, and 45 seconds after PAF challenge and platelets were counted. Thirty minutes after the control PAF challenge, the animals were orally dosed with either gum acacia or the test compound. Animals were then challenged with PAF at 1, 3, 5, and 24 hours after the administration of the drug.
The % change, i.e., the difference in platelet number before and after PAF challenge was calculated by: [formula] The % activity of drug was then determined by
Statistical significance (p≤0.05) of the difference between the mean PAF control and mean drug treated activity was determined with the pared Students's t-test.

[3] = target: T2, Thromboxane Synthase (TXA2 Syn.) (Homo sapiens, UniProt P24557); assay: TXA2 Synthesis Inhibition (thromboxane synthase, microsomal fractions from human platelets); format: biochemical; conditions: human platelet microsomes, 10 μM 14C-PGH2, 22°, 2 minutes
T2 construct: microsomal fractions from human platelets as enzyme source; from tissue; host or cells: microsomal fractions from human platelets
T2 sequence (P24557 1-533): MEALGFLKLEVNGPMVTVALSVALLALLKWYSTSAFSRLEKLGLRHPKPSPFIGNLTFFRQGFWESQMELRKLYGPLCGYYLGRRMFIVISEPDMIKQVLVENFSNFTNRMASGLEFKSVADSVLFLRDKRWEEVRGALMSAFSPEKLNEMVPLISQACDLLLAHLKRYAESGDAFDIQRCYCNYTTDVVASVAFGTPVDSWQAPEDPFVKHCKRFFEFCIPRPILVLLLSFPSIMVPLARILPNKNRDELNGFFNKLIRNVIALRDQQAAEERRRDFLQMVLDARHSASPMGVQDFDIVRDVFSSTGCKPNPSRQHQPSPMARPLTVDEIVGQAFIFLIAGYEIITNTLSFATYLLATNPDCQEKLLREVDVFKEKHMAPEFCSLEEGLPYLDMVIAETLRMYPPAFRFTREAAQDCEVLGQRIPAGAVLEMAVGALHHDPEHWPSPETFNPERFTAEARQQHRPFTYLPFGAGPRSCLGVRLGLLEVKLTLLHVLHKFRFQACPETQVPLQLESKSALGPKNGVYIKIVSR
Method: Thromboxane synthase inhibitory activity is measured by following the conversion of ^14 C-[…] using microsomal fractions from human platelets as enzyme source. In the aqueous incubation medium. The TXA2 decomposes rapidly into TXB2 . The amount of TXA2 syn. is adjusted so that under the conditions of the assay approximately 80-90% of the substrate. PGH2, is converted to product in control tubes. To prepare ^14 C-PGH2, ^14 C-AA(50-60mCi/mmole; Rose Chem.) is incubated with sheep seminal vesicular gland microsomes for 1.5 min. at 37° and then the ^14 C-PGH2 is extracted with diethylether, purified on columns of Sephadex LH-20 or silicic acid, and stored in acetone at -70° C. Incubations are done as follows. Sufficient ^14 C-PGH2 to yield a final substrate concentration of 10 μM ( 30,000 cpm) is added to the incubation tubes and then the acetone is removed under nitrogen. The tubes are placed in an ice bath and then 215 μl of ice cold phosphate buffered saline, 10 μof ethanol (control) or of test drug in ethanol, and 25 μl of the microsomal suspension are added with mixing in that order as rapidly as possible. The tubes are incubated at 22° for 2 minutes, the reaction is stopped and then the radioactive products and the unconverted PGH2 are extracted and analyzed by thin layer chromatography. The amount of ^14 C-PGH2 converted to products is analyzed by thin layer chromatography. The amount of ^14 C-PGH2 converted to products was used as a measure of TXA synthase activity. Inhibitors were tested initially at a concentration of 100 μM.

[4] = tested on: PAF-Induced Bronchoconstriction; assay: PAF-Induced Bronchoconstriction Assay; format: in vivo, guinea pig; conditions: Cavia porcellus; for inhibition in vivo at 1 mg/kg: 1 min, 1 mg/kg iv, 1 minute pretreatment
Method: The in vivo ability of compounds to inhibit PAF-induced bronchoconstriction in guinea pigs was assessed by the intravenous and oral routes of administration. The intravenous technique utilized male guinea pigs (Hartley strain, Charles River) weighing 400-600 g. Animals were anesthetized with urethane (2 g/kg) intraperitoneally and a polyethylene cannula was inserted into the jugular vein for intravenous drug administration. Tracheal pressure ([…]) was recorded from a Statham pressure transducer (P 32 AA). Propranolol was administered 5 minutes prior to challenge with PAF. Two minutes later spontaneous breathing was arrested with succinylcholine chloride (1.2 mg/kg) administered intravenously, and the animals were ventilated with a Harvard (Model 680) small animal respirator set at 40 breaths/min and 4.0 cc stroke volume. Control vehicle or test drug was administered through the cannula into the jugular vein 1 minute before the animals were challenged with a maximum constrictory dose of PAF (1.0 μg/kg) given intravenously. The change in tracheal pressure was averaged for four control and four drug-treated animals and percent inhibition was calculated.
For determination of oral activity, animals were dosed with test compound or vehicle two hours prior to challenge with PAF (1.0 μg/kg, i.v.).
The change in tracheal pressure is determined by subtracting the steady state baseline achieved after administration of succinylcholine from the peak bronchoconstriction seen after challenge with PAF. The mean change in tracheal pressure is calculated for each test compound and compared to the mean change in tracheal pressure for the control animals to give the percent inhibition of bronchoconstriction. The standard error is calculated as the standard error of the mean.

[5] = tested on: PAF-Induced Platelet Count Decrease; assay: PAF-Induced Platelet Count Decrease; format: in vivo, guinea pig; conditions: 30 mg/kg, 2 hours, pretreatment

Row | IC50 [1] [nM] | IC50 [3] [nM] | SMILES | inhibition in vivo at 3 mg/kg [2] [%] | inhibition in vivo at 1 mg/kg [4] [%] | inhibition in vivo at 50 mg/kg ([4]; 50 mg/kg, po, 2 hours pretreatment) [%] | PAF-Induced Platelet Count Decrease % Inhibition, po [5] [%] | PAF-Induced Platelet Count Decrease % Inhibition, po ([2]; 100 mg/kg, po, 3 hours, pretreatment) [%]
1 | 120 | 100 to 1000 | COc1cccc(-c2ccc(C(=S)NC(C)CCCc3cccnc3)cc2)c1 (racemic) [(rac.)-3'-Methoxy-N-(1-methyl-4-(3-pyridinyl)butyl][1,1'-biphenyl]-4-carbothioamide] | 6 | 16 ± 14 |  |  | 
2 | 60 | 100 to 1000 | COc1ccc(-c2ccc(C(=S)NC(C)CCCc3cccnc3)cc2)cc1OC (racemic) [rac.-3',4'-Dimethoxy-N-[1-methyl-4-(3-pyridinyl)butyl][1,1'-biphenyl]-4-carbothioamide] | 24 | 86 ± 7 | 37 ± 9 | 48 | 

Continued, compound first:

Row | SMILES | IC50 [1] [nM] | IC50 [3] [nM] | inhibition in vivo at 3 mg/kg [2] [%] | inhibition in vivo at 1 mg/kg [4] [%] | inhibition in vivo at 50 mg/kg ([4]; 50 mg/kg, po, 2 hours pretreatment) [%] | PAF-Induced Platelet Count Decrease % Inhibition, po [5] [%] | PAF-Induced Platelet Count Decrease % Inhibition, po ([2]; 100 mg/kg, po, 3 hours, pretreatment) [%]
3 | Cc1ccc(-c2ccc(C(=O)NC(C)CCCc3cccnc3)cc2)cc1C (racemic) [(rac.)-3',4'-Dimethyl-N-[1-methyl-4-(3-pyridinyl)butyl][1,1'-biphenyl]-4-carboxamide] | 200 | 100 to 1000 | 12 |  |  |  | 
4 | COc1ccc(-c2ccc(C(=S)NCCCCc3cccnc3)cc2)cc1OC [3',4'-Dimethoxy-N-[4-(3-pyridinyl)butyl][1,1'-biphenyl]-4-carbothioamide] |  | 225 | 15 |  |  |  | 53
5 | Cc1ccc(-c2ccc(C(=O)NCCCCCCc3cccnc3)cc2)cc1C [3',4'-Dimethyl-N-[6-(3-pyridinyl)hexyl][1,1'-biphenyl]-4-carboxamide] | 450 | 600 | 27 |  |  |  | 
6 | Cc1ccc(-c2ccc(-c3nnnn3CCCCc3cccnc3)cc2)cc1C [3-[4-[5-(3',4'-Dimethyl-[1,1'-biphenyl]-4-yl)-1H-tetrazol-1-yl]butyl]pyridine] | 800 | > 1000 |  | 57 ± 4 |  |  | 
7 | Cc1ccc(-c2ccc(-c3nnnn3CCCCCCc3cccnc3)cc2)cc1C [3-[6-[5-(3',4'-Dimethyl-[1,1'-biphenyl]-4-yl)-1H-tetrazol-1-yl]hexyl]pyridine] | 200 | 100 to 1000 | 0 | 18 ± 13 |  |  | 
